ChEMBL document CHEMBL5260850, “The exploration of aza-quinolines as hematopoietic prostaglandin D synthase (H-PGDS) inhibitors with low brain exposure” (Bioorg Med Chem, 2020)
Active and inactive are the calls of the source. The rule behind the calls is not given here.

Tests used:
[1] = Cmax in Wistar Han rat at 10 mg/kg/day, po QD for 7 days; assay type: ADME, organism-based; set-up: time 7 day, dose 10 mg/kg/day, route po; conditions: in vivo
[2] = Dose normalized AUC in mouse at 3 mg/kg, po; assay type: ADME, organism-based; set-up: unit not given here; conditions: in vivo
[3] = biological target: 5-hydroxytryptamine receptor 2A (Homo sapiens) (UniProt P28223); conditions: dose <= 10000.0 nM
Description: Inhibition of 5-HT2A receptor (unknown origin) upto 10000 nM

[4] = Apparent permeability, Papp of the compound at pH 7.4 incubated for 3 hrs by AMP based liquid chromatography; assay type: ADME; conditions: not told
[5] = CNS toxicity in Wistar Han rat at 10 to 100 mg/kg/day, po QD for 7 days; assay type: organism-based; conditions: in vivo, 168 h, dose 10-100 mg/kg/day, time 7 day
[6] = biological target: Muscarinic acetylcholine receptor M1 (Homo sapiens) (UniProt P11229); conditions: dose <= 10000.0 nM
Description: Inhibition of muscarinic M1 receptor (unknown origin) upto 10000 nM

[7] = Clearance in mouse at 1 mg/kg, iv; assay type: ADME, organism-based; conditions: in vivo
[8] = biological target: Muscarinic acetylcholine receptor M2 (Homo sapiens) (UniProt P08172); conditions: dose <= 10000.0 nM
Description: Inhibition of muscarinic M2 receptor (unknown origin) upto 10000 nM

[9] = biological target: Acetylcholinesterase (Homo sapiens) (UniProt P22303); conditions: dose <= 10000.0 nM
Description: Inhibition of AChE (unknown origin) upto 10000 nM

[10] = Toxicity in Wistar Han rat assessed as animal death at 100 mg/kg/day, po administered QD for 7 days; assay type: organism-based; conditions: in vivo, 168 h, time 7 day
[11] = biological target: Cannabinoid receptor 1 (Homo sapiens) (UniProt P21554); conditions: dose <= 10000.0 nM
Description: Inhibition of CB1 receptor (unknown origin) upto 10000 nM

[12] = biological target: Solute carrier organic anion transporter family member 1B1 (Homo sapiens, UniProt Q9Y6L6); test: Inhibition of OATP1B1 (unknown origin) upto 10000 nM; conditions: 10 µM
[13] = biological target: 5-hydroxytryptamine receptor 2B (Homo sapiens) (UniProt P41595); conditions: dose <= 10000.0 nM
Description: Inhibition of 5-HT2B receptor (unknown origin) upto 10000 nM

[14] = Oral bioavailability in mouse at 3 mg/kg; assay type: ADME, organism-based; conditions: in vivo
[15] = Free AUC (0 to last) in eccentric contraction-induced muscle injury C57BL/6N mouse model administered orally for 10 mins prior to unilateral eccentric contraction and QD for 16 days thereafter; assay type: ADME; conditions: in vivo, po, 384 h, time 16 day
[16] = Genotoxicity in Salmonella typhimurium in presence of metabolic activation by Ames test; assay type: toxicity; conditions: salmonella enterica subsp. enterica serovar typhimurium
[17] = biological target: Bile salt export pump (Homo sapiens, UniProt O95342); test: Inhibition of BSEP (unknown origin) upto 10000 nM; conditions: 10 µM
[18] = Toxicity in Wistar Han rat assessed as seizure-like activity at 10 to 100 mg/kg/day, po QD for 7 days; assay type: organism-based; conditions: in vivo, 168 h, dose 10-100 mg/kg/day, time 7 day
[19] = Toxicity in Wistar Han rat assessed as tolerance at 30 mg/kg/day, po administered QD for 7 days; assay type: organism-based; conditions: in vivo, 168 h, time 7 day
[20] = biological target: Mas-related G-protein coupled receptor member X2 (Homo sapiens) (UniProt Q96LB1); conditions: dose <= 10000.0 nM
Description: Inhibition of MRGPRX2 receptor (unknown origin) upto 10000 nM

[21] = Volume of distribution at steady state in dog at 0.5 mg/kg, iv; assay type: ADME, organism-based, Canis lupus familiaris; conditions: in vivo, read-out: Vdss
[22] = test system: Mus musculus; test: Anti-inflammatory activity against mdx mouse assessed as inhibition of muscle function loss by measuring functional recovery of injured limb muscles administered orally 10 mins prior to unilateral eccentric contraction and QD for 43 days thereafter; conditions: 1032 h, route po, time 43 day
[23] = Cmax in dog at 75 mg/kg/day, po QD for 4 days; assay type: ADME, organism-based, Canis lupus familiaris; set-up: dose 75 mg/kg/day, time 4 day, route po; conditions: in vivo
[24] = biological target: Nuclear receptor subfamily 1 group I member 2 (Homo sapiens, UniProt O75469); test: Inhibition of PXR (unknown origin) upto 10000 nM; conditions: 10 µM
[25] = biological target: Voltage-dependent L-type calcium channel subunit alpha-1C (Homo sapiens, UniProt Q13936); test: Inhibition of Cav1.2 channel (unknown origin) upto 10000 nM; conditions: 10 µM
[26] = biological target: D(1A) dopamine receptor (Homo sapiens) (UniProt P21728); conditions: dose <= 10000.0 nM
Description: Inhibition of dopamine D1 receptor (unknown origin) upto 10000 nM

[27] = biological target: Sodium channel protein type 5 subunit alpha (Homo sapiens, UniProt Q14524); test: Inhibition of Nav1.5 channel (unknown origin) upto 10000 nM; conditions: 10 µM
[28] = Genotoxicity in Salmonella typhimurium in absence of metabolic activation by Ames test; assay type: toxicity; conditions: salmonella enterica subsp. enterica serovar typhimurium
[29] = Half life in mouse liver microsomes pretreated for 5 mins followed by incubation with NADP for 30 secs and measured upto 45 mins by LC-MS/MS analysis; assay type: ADME, Microsome; conditions: time 3030 sec
[30] = biological target: Amine oxidase [flavin-containing] A (Homo sapiens, UniProt P21397); test: Inhibition of MAO-A (unknown origin) upto 10000 nM; conditions: 10 µM
[31] = AUC in Wistar Han rat at 10 mg/kg/day, po QD for 7 days; assay type: ADME, organism-based; set-up: dose 10 mg/kg/day, time 7 day, route po; conditions: in vivo
[32] = Toxicity in dog assessed as deterioration in clinical condition at 75 mg/kg/day, po QD for 4 days; assay type: organism-based, Canis lupus familiaris; conditions: in vivo, 96 h, time 4 day
[33] = Toxicity in Wistar Han rat assessed as increased lymphocytolysis in thymus at 100 mg/kg/day, po administered QD for 7 days by microscopic analysis; assay type: organism-based; conditions: in vivo, 168 h, time 7 day
[34] = biological target: Potassium voltage-gated channel subfamily A member 5 (Homo sapiens) (UniProt P22460); conditions: dose <= 10000.0 nM
Description: Inhibition of Kv1.5 channel (unknown origin) upto 10000 nM

[35] = Toxicity in dog assessed as organ morphological changes upto 30 mg/kg/day, po QD for 4 days by microscopic analysis; assay type: organism-based, Canis lupus familiaris; conditions: in vivo, 96 h, time 4 day
[36] = biological target: Beta-2 adrenergic receptor (Homo sapiens) (UniProt P07550); conditions: dose <= 10000.0 nM
Description: Inhibition of beta2 adrenergic receptor (unknown origin) upto 10000 nM

[37] = Toxicity in dog assessed as clinical pathological changes by measuring increase in hepatobiliary parameters at 75 mg/kg/day, po QD for 4 days; assay type: organism-based, Canis lupus familiaris; conditions: in vivo, 96 h, time 4 day
[38] = Ratio of drug level in muscle to plasma in C57BL/6N mouse administered orally for 10 mins prior to unilateral eccentric contraction and QD for 43 days thereafter; assay type: toxicity, cell-free, Muscle tissue/plasma; conditions: route po, time 43 day
[39] = Volume of distribution at steady state in rat at 0.4 mg/kg, iv; assay type: ADME, organism-based; conditions: in vivo, read-out: Vdss
[40] = AUC in Wistar Han rat at 30 mg/kg/day, po QD for 7 days; assay type: ADME, organism-based; set-up: dose 30 mg/kg/day, time 7 day, route po; conditions: in vivo
[41] = test system: Mus musculus; test: Anti-inflammatory activity against C57BL6/N mouse assessed as reduction in LPS-induced PGD2 level in plasma administered orally with compound and 1 hr later treated with LPS and measured after 30 mins by LC-MS/MS analysis; assay type: functional; conditions: route po, time 1.5 hrs
[42] = test system: Mus musculus; test: Anti-inflammatory activity against C57BL6/N mouse assessed as EC50 required for reduction in LPS-induced PGD2 level in skeletal muscle administered orally with compound and 1 hr later treated with LPS and measured after 30 mins by LC-MS/MS analysis; assay type: functional, organism-based, C57BL/6N
[43] = Terminal half life in mouse at 1 mg/kg, iv; assay type: ADME, organism-based; conditions: in vivo, read-out: beta t1/2 (converted)
[44] = Toxicity in dog assessed as diffuse degenration/regeneration and multifocal erosion/ulcreation in small intestine and oesophagus at 75 mg/kg/day, po QD for 4 days by microscopic analysis; assay type: organism-based, Canis lupus familiaris; conditions: in vivo, 96 h, time 4 day

Chain of 5-hydroxytryptamine receptor 2B (Homo sapiens) (P41595 whole entry): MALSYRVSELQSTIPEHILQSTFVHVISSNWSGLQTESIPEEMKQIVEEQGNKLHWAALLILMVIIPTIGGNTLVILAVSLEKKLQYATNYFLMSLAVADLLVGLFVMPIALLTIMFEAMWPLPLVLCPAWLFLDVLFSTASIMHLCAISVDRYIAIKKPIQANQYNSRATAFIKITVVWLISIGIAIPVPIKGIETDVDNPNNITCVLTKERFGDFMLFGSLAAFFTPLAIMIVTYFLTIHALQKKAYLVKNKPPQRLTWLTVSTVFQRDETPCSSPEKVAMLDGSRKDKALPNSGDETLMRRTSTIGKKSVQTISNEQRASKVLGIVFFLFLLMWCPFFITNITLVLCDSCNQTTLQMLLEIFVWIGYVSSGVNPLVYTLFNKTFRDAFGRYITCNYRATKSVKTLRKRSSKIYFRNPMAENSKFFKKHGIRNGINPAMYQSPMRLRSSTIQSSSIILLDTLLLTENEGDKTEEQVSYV
Chain of Cannabinoid receptor 1 (Homo sapiens) (P21554 whole entry): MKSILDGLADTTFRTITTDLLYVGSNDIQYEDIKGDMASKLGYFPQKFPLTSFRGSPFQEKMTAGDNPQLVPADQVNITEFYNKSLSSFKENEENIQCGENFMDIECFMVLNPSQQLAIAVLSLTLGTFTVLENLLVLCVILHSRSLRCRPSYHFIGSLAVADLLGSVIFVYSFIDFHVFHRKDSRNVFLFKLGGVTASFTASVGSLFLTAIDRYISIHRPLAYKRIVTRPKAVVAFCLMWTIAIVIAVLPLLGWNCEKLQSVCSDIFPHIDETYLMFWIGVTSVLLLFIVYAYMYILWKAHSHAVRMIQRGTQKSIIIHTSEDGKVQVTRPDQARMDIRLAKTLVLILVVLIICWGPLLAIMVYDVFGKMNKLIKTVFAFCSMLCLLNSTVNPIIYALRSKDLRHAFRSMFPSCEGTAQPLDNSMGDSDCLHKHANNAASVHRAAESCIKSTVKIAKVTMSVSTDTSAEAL
Chain of Mas-related G-protein coupled receptor member X2 (Homo sapiens) (Q96LB1 whole entry): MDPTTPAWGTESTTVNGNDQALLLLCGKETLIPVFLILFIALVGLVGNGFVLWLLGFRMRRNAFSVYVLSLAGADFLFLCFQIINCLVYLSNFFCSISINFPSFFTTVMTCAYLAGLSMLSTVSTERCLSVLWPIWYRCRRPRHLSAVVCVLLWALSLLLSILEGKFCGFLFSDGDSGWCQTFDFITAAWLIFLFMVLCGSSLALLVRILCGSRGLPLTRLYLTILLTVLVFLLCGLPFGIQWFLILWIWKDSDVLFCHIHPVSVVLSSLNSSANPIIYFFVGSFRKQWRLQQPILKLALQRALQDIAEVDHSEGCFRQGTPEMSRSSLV
Chain of Voltage-dependent L-type calcium channel subunit alpha-1C (Q13936 whole entry): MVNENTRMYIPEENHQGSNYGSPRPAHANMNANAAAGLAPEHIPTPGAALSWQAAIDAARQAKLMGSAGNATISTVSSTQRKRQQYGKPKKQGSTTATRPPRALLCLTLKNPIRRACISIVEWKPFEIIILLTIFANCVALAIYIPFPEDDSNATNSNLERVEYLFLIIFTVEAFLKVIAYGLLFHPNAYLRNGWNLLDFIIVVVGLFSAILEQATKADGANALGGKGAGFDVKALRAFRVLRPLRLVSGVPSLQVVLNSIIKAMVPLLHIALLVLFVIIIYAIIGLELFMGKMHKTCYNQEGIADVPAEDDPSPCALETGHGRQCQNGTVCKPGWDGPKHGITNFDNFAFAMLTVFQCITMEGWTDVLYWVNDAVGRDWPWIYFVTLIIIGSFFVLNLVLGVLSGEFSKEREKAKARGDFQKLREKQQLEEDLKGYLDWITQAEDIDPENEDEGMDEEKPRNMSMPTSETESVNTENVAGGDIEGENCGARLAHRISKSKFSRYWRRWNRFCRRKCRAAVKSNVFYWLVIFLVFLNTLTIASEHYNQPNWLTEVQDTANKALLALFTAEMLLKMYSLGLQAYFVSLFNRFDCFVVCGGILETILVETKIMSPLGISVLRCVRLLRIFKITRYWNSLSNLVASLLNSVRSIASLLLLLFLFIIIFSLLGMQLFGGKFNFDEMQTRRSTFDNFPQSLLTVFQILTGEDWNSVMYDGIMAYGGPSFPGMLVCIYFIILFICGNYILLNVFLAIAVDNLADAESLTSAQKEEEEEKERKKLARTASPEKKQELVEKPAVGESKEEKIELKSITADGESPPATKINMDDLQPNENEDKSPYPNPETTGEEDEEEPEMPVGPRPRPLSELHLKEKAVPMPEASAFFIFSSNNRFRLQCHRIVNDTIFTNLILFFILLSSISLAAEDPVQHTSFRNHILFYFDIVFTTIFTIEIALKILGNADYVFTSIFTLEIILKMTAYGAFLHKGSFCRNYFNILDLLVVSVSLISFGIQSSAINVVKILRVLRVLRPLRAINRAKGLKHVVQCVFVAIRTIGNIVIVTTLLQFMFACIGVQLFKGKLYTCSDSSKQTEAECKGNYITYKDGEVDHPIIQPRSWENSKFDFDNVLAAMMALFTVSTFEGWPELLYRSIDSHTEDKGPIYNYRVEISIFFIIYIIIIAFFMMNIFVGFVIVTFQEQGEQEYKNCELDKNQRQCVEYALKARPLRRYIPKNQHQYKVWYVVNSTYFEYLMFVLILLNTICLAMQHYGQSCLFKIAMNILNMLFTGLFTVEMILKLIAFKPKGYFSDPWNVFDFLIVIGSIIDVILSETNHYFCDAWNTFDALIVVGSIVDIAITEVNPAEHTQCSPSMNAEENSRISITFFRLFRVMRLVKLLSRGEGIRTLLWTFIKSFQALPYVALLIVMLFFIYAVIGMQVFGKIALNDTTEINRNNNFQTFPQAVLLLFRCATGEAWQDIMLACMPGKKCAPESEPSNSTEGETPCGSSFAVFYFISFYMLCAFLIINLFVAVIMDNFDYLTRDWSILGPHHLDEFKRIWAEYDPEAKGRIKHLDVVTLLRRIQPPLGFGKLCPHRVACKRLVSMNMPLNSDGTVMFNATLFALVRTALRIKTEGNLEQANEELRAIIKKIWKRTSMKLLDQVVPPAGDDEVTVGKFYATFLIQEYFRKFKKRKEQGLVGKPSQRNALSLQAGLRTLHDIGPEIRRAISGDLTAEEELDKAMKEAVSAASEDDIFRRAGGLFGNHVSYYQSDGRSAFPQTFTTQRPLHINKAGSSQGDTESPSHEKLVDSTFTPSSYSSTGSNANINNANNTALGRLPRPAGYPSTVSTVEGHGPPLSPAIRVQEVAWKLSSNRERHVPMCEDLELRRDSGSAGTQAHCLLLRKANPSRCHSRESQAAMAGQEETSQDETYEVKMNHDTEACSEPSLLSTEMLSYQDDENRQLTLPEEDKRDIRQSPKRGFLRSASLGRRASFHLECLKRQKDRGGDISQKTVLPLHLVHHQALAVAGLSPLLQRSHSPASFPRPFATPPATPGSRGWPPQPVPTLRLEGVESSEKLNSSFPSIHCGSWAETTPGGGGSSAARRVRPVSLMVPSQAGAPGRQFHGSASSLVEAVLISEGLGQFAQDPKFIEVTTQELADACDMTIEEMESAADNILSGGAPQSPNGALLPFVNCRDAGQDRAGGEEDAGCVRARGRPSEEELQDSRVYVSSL
Chain of Bile salt export pump (O95342 whole entry): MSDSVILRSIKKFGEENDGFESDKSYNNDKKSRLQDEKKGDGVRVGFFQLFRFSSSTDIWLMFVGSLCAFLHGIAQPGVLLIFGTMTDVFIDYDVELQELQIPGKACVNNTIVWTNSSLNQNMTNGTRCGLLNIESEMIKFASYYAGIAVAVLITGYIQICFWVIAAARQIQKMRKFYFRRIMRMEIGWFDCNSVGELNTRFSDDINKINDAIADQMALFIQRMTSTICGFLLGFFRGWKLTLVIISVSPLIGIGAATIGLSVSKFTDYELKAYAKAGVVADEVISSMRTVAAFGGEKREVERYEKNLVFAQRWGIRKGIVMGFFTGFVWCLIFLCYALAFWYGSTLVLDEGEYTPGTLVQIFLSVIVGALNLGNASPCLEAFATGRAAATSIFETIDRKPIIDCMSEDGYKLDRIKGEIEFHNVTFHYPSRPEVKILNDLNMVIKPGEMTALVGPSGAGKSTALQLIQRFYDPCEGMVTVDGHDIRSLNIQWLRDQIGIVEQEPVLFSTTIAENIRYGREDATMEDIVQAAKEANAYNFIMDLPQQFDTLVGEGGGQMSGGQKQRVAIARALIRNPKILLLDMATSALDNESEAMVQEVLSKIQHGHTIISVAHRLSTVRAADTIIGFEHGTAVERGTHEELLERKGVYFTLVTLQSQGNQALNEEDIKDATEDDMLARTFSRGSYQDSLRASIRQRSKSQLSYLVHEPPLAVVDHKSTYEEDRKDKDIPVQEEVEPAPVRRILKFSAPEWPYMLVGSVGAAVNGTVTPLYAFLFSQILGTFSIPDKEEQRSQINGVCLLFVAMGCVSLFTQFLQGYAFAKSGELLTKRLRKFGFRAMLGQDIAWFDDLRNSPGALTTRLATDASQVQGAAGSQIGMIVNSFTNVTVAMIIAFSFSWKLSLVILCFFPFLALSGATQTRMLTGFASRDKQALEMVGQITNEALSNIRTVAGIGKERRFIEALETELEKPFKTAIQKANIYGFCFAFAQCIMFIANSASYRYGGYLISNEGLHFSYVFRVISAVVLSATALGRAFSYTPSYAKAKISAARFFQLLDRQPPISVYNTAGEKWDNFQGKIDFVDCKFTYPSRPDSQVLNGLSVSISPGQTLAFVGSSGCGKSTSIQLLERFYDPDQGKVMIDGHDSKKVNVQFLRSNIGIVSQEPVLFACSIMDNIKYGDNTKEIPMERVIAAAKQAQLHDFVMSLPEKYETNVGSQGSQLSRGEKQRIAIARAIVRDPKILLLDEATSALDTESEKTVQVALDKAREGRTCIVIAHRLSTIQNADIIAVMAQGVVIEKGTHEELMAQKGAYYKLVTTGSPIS

CC(C)(O)[C@H]1CC[C@H](NC(=O)c2cnc3nc(C4CC4)ccc3c2)CC1
Cmax [1]: 8.7 µg/mL | AUC/dose [2]: 1320 | inhibition [3]: inactive | Papp at 3 h [4]: 4.4 ×10⁻⁶ cm/s | Activity [5]: Non-Toxic | inhibition [6]: inactive | clearance [7]: 9 mL/min/kg | inhibition [8]: inactive | inhibition [9]: inactive | Activity [10]: Toxic | inhibition [11]: inactive | inhibition (INH) [12]: Not Active | inhibition [13]: inactive | bioavailability [14]: 71% | fAUClast [15]: 1.2 µg·h/mL | Activity [16]: Non-Toxic | inhibition (INH) [17]: Not Active | Activity [18]: Non-Toxic | Activity [19]: Non-Toxic | inhibition [20]: inactive | Vd [21]: 1 L/kg | ED50 [22]: 1.1 mg/kg | Cmax [23]: 210 µg/mL | inhibition (INH) [24]: Not Active | inhibition (INH) [25]: Not Active | inhibition [26]: inactive | inhibition (INH) [27]: Not Active | Activity [28]: Non-Toxic | half-life [29]: > 3 h | inhibition (INH) [30]: Not Active | AUC at 168 h [31]: 120 µg·h/mL | Activity [32]: Toxic | Activity [33]: Toxic | inhibition [34]: inactive | Activity [35]: Non-Toxic | inhibition [36]: inactive | Activity [37]: Toxic | Kp at 1032 h [38]: 0.56 | Vd [39]: 1.6 L/kg | AUC at 168 h [40]: 410 µg·h/mL | ED50 [41]: 0.0031 mg/kg | EC50 [42]: 1.4 ng/g | half-life [43]: 2.9 h | Activity [44]: Toxic
